Assay results as given in patent publication US20110306040A1, “CPG RECEPTOR (CPG-R) AND METHODS RELATING THERETO” (priority 1999, published 2011).

Tests used:
NF-κB = assay: κB-Luc assay in RAW 264.7 macrophages; type: cell-based, mouse; settings: for κB-dependent luciferase expression: RAW 264.7 transfected with κB-Luc, IL-1 20 ng/ml, MPL 1 μg/ml, oligonucleotides 4 μM, normalized to untreated transfected cells
Protocol: RAW 264.7 cells were seeded into 6-well plates (Corning) at a density of 3×10^5 cells per well 24 hours prior to transfection. Plasmids used in transfection were pNF-κB-Luc (Clontech) and pCR3. V64-Met-Flag-MyD88lpr (kindly provided by Jurgen Tschopp; described in (Burns et al., J. Biol. Chem., 1998, 273, 12203-9). Total plasmid DNA concentration was normalized across all wells by addition of empty vector (pCMVKm2, Chiron). Cells were transfected with stated concentrations of DNA in Opti-MEM I (Gibco BRL) with […] of LipofectAMINE (Gibco BRL) per well according to manufacturer's instructions. Cells were incubated with the transfection mixture 3 hours at 37° C., then culture media was replaced and cells were allowed to recover overnight. The following day transfected cells were treated in culture media at 37° C., 5% CO2 with phosphorothioate oligonucleotides, MPL, LPS, or cytokines at indicated concentrations and times. Cells were washed once with cold phosphate buffered saline (PBS), and lysed with Reporter Lysis BufferJ (Promega). Luciferase activity in lysate supematants was determined using Microlite 2 plates (Dynex) and a ML 3000 Luminometer (Dynatech) all according to manufacture's instructions. For detection of FLAG-MyD88lpr expression, the insoluble pellet from transfected RAW 264.7 cells was resuspended in Triton lysis buffer and sonicated 10 minutes prior to addition of sample buffer and boiling. After separation and transfer to nitrocellulose, membranes were immunoblotted using FLAG M2 (Sigma) antibody.
To directly evaluate κB-dependent transcription induced by CpG oligonucleotide or MPL treatment, RAW 264.7 macrophage were transfected with an NF-κB-inducible reporter plasmid encoding luciferase under the control of multiple copies of the kappa light chain enhancer (κB-Luc) and the following day treated with adjuvants or cytokines. In particular, RAW 264.7 cells were transfected with a kB-driven luciferase reporter gene and treated 24 hours later with IL-1 (20 ng/ml), MPL (1 μg/ml), LPS (1 μg/ml) or a phosphorothioate CpG oligonucleotide (4 μM) for 6 hours. Luciferase activity in cell lysates was quantified by luminometry, and results were normalized to the luciferase signal in untreated transfected cells.
The effects of CpG oligonucleotide on κB-dependent luciferase expression were dose- and time-dependent (see FIGS. 1B and 1C). In regard to FIG. 1B, RAW 264.7 cells transiently transfected with a κB-luciferase reporter plasmid were treated 24 hours later with concentrations of phosphorothioate CpG oligonucleotide concentrations ranging from 0.25-8 μM, or a control oligonucleotide (4 μM) for 6 hours. Activation was detected at CpG oligonucleotide concentrations as low as 0.25 μM (FIG. 1B), but not at the lowest concentration tested (0.05 μM) (data not shown). Data shown in FIG. 1B are average luciferase activity in lysates from duplicate wells normalized to luciferase levels in lysates from untreated transfected wells on the same 6-well tissue culture plate. […] In regard to FIG. 1C, RAW 264.7 cells transiently transfected with a kB-Luc and treated 24 hours later with a CpG-containing oligonucleotide (4 μM; open circles), or LPS (1 μg/ml; filled circles). Results shown in FIG. 1C are average of duplicate wells normalized to untreated transfected wells.

MyD88 [1] = assay: κB-Luc assay in RAW 264.7 cells co-transfected with dominant-negative MyD88lpr; type: cell-based, mouse; settings: κB-Luc:MyD88lpr 10:1 or 1:1, oligonucleotides 4 μM, MPL 1 μg/ml, LPS 1 μg/ml
[2] = test system: CD86 expression on TLR4 mutant BMDDC; assay: Flow cytometry of cell-surface CD86 on TLR4 mutant (C3H/HeJ) BMDDC; type: cell-based, mouse; settings: overnight, oligonucleotide 5 μM, LPS 1 μg/ml, normalized to untreated
Protocol: (§1) Bone marrow was harvested from female mice 6-12 weeks old of various genotypes (C57Bl/6, Balb/c; Charles River; or C3H/HeJ, Jackson Labs). Bone marrow cells were used fresh or were frozen in fetal calf serum (FCS; Summit) containing 10% dimethylsulfoxide and stored at −80° C. Bone-marrow macrophages (BMMO) were prepared as described in Current Protocols in Immunology, supra. Briefly, fresh or frozen bone marrow cells were cultured in RPMI, 10% heat inactivated (30 minutes, 56° C.) fetal calf serum (FCS), 2 mM L-glutamine, 100 μg/ml streptomycin, 100 units/ml penicillin, 50 μM β-mercaptoethanol and 100 U/ml recombinant macrophage colony stimulating factor (M-CSF; R&D Systems). After 24 hours, nonadherent cells were removed to a new dish, and culture continued for 7 days to produce a macrophage monolayer. […]
(§2) BMDDC were treated overnight with adjuvants as indicated, washed, resuspended in cold PBS/2% FBS containing FcBlock (0.25 μg/10^6 cells; Pharmingen), and FITC- and PE-conjugated antibodies (1 μg/10^6 cells) were added 5 minutes later. Cells were incubate with antibodies on ice 30 minutes, washed, and analyzed by flow cytometry on a FACScan (Becton-Dickenson). […] Changes in CD86 expression are assessed based on geometric mean fluorescence of CD86-FITC staining of the live CD11c cells treated with adjuvants normalize to the geometric mean CD86-FITC fluorescence of untreated BMDDC cultures. […]

[3] = test system: MAPK pathways, including ERK, JNK and p38; assay: Immunoblotting for MAPK pathway phosphorylation (ERK1/2, JNK/c-jun, p38 substrate ATF2); type: cell-based, mouse; settings: BMMO, dendritic cells and RAW 264.7; within an hour of stimulation; oligonucleotides 1 μM; data not shown
Protocol: as §1, with “monolayer. Nonadherent BMDDCs were produced by culture in the same medium supplemented with GM-CSF (200 U/ml; Preprotech) rather than M-CSF.” for “monolayer.”
Macrophages were differentiated from bone marrow cells of C57Bl/6 mice as described in Example 1 and then transferred to low serum medium lacking M-CSF for 4 hours. […] The positive result for ERK½ MAPK activation in RAW 264.7 cells and BMMO are in contrast to observations in another mouse macrophage cell line, J774, where ERK phosphorylation was not detected in CpG oligonucleotide-treated cells.

IκBα = assay: Immunoblotting for phosphorylated and total IκBα in RAW 264.7 cells; type: cell-based, mouse; settings: 4 μM
Protocol: Following stimulation, BMMO or RAW 264.7 cells were lysed in 1% Triton X-100, 50 mM Tris, 62.5 mM EDTA (pH 8.0) with CompleteJ protease inhibitor cocktail (Boehringer Mannheim) (Triton lysis buffer). Lysates were boiled in reducing sample buffer, separated on 10% polyacrylamide gels using the NuPAGEJ Bis-Tris electrophoresis system (Novex). Nitrocellulose membranes were probed with antibodies against IκB-α, phosphorylated-IκB-α, (New England BioLabs), or anti-IL-18 (Santa Cruz Biotechnology) according to manufacturer's instructions, and visualized with enhanced chemiluminescence (Amersham).
Lysates were also prepared from untreated RAW 264.7 cells or cells treated with a phosphorothioate CpG oligonucleotide (4 μM) for 5, 10, 20 and 60 minutes as well as a control oligonucleotide lacking CpG motifs for 60 minutes. The lysates were then resolved by electrophoresis, and immunoblotted with antisera to phosphorylated IκBα and total IκBα. […] This activation was detected at the level of IκBα phosphorylation within 10 minutes of CpG oligonucleotide addition, and degradation of IκBα was notable at 20 minutes.

MyD88 [4] = assay: κB luciferase assay of NIH-3T3 cells transfected with MyD88 dominant-negative constructs; type: cell-based, murine; settings: FIG. 3A
Excerpt: (§3) In another set of experiments, three MyD88 constructs lacking the ability to transduce signals were amplified by PCR, and placed under constitutive control of the CMV promoter (pCMV-FLAG vector, Sigma Aldrich). The first construct, MyD88lpr, contains a point mutation F56N in the death domain. The second construct, MyD88-ΔDD, lacks the death domain completely. The third construct, MyD88-THD, lacks both the death domain and the intermediate domain. The DNA was transfected into RAW 264.7 cells or murine embryonic NIH-3T3 cells using a cationic lipid reagent. A luciferase reporter plasmid was cotransfected. […] Cells were then stimulated with CpG oligonucleotides and several control cytokines. Luciferase expression was assayed on a luminometer to determine if the mutant MyD88 protein had affected CpG signaling. Restriction analysis and sequencing results confirmed the presence of the MyD88 constructs (data not shown). […] The MyD88 TIR domain alone was sufficient to block signaling.

MyD88 [5] = assay: κB luciferase assay of RAW 264.7 cells transfected with MyD88 dominant-negative constructs; type: cell-based, mouse; settings: FIG. 3B
Excerpt: as §3

CD86 expression on BMDDC = assay: Flow cytometry of cell-surface CD86 on wild-type (Balb/c) BMDDC; type: cell-based, mouse; settings: overnight, oligonucleotides 5 μM, LPS 1 μg/ml, normalized to untreated
Protocol: as §1, §2

ERK = settings: J774 mouse macrophage cell line; cited from earlier work

Molecule | κB-dependent luciferase expression (NF-κB; 6 hours, LPS 1 μg/ml) | Effect of dominant-negative MyD88lpr expression on induced κB-dependent luciferase activity (MyD88 [1]) | Cell-surface CD86 expression on live CD11c positive cells [2] | Phosphorylation of ERK, JNK and/or the JNK substrate c-jun, and of the p38 MAPK substrate ATF2 [3] | Effect of dominant negative MyD88 constructs (MyD88lpr, MyD88-ΔDD, MyD88-THD) on signaling to κB luciferase reporter (MyD88 [4]) | also measured
monophosphoiyl lipid A [MPL] | potent activators of NF-κB | inhibited | no change in CD86 expression |  |  | 
tccatgacgttcctgacgtt [CpG oligonucleotide] | induced κB-dependent luciferase expression, to a level similar to that induced by MPL or LPS | inhibited | an increase in CD86 expression similar to that observed in the wild-type BMDDC | observed in all three cell types | specifically and selectively blocks signaling | Time at which IκBα phosphorylation was detected after addition (IκBα): ≤ 10 min; Time at which degradation of IκBα was notable (IκBα): 20 min; κB-Luc activation at the lowest concentration tested (NF-κB; RAW 264.7, 0.05 μM, data not shown): not; Activation of the reporter gene at 10 μM dose relative to 8 μM (NF-κB; RAW 264.7, 10 μM, data not shown): not further enhanced; Concentration of maximal activation of the reporter gene (NF-κB; RAW 264.7, 6 hours, FIG. 1B): 8 µM; Lowest concentration at which κB-Luc activation was detected (NF-κB; RAW 264.7, 6 hours, FIG. 1B): 0.25 µM; Increase of κB-dependent luciferase expression by 2 hours (NF-κB; RAW 264.7, CpG oligonucleotide 4 μM, LPS 1 μg/ml, FIG. 1C): greater than two-fold increase; Effect of dominant negative MyD88 constructs (MyD88lpr, MyD88-ΔDD, MyD88-THD) on signaling to κB luciferase reporter (MyD88 [5]): specifically and selectively blocks signaling; Cell-surface CD86 expression on live CD11c positive cells (CD86 expression on BMDDC): increased cell-surface CD86 expression; ERK phosphorylation (ERK): not detected
tccaggacttctctcaggtt (TCCAGGACTTCTCTCAGGTT; DNA, all phosphorothioate, methylation of C not given here) [control oligonucleotide] | did not induce an increase |  |  | not |  | 
IL-18: recombinant mouse interleukin-18 (Biosource) (protein, UniProt P70380 36-192, looked up) Interleukin-18: NFGRLHCTTAVIRNINDQVLFVDKRQPVFEDMTDIDQSASEPQTRLIIYMYKDSEVRGLAVTLSVKDSKMSTLSCKNKIISFEEMDPPENIDDIQSDLIFFQKRVPGHNKMEFESSLYEGHFLACQKEDDAFKLILKKKDENGDKSVMFTLTNLHQS | poor activator |  |  |  |  | 
IL-1: recombinant mouse interleukin-1β (Endogen) (protein, UniProt P10749 118-269, looked up) Interleukin-1 beta: VPIRQLHYRLRDEQQKSLVLSDPYELKALHLNGQNINQQVIFSMSFVQGEPSNDKIPVALGLKGKNLYLSCVMKDGTPTLQLESVDPKQYPKKKMEKRFVFNKIEVKSKVEFESAEFPNWYISTSQAEHKPVFLGNNSGQDIIDFTMESVSS | poor activator |  |  |  | did inhibit | 
